{"source": "patent US11185077B2", "about": "“Attractants for rodents” (priority 2016, dated 2021)", "test_system": "wild rats", "assay": "Field experiments with paired trap boxes: trap captures of wild rats", "assay_type": "in vivo, rat", "conditions": "Experiment 16, 4 μg synthetic androstenone", "text": "Four field experiments were run in Vancouver B.C. to evaluate the effect of synthetic androstenone and synthetic testosterone on captures of female wild mice and rats in combination with species-specific male sex pheromone blend. Experimental replicates were set up along the interior and exterior walls of buildings as depicted in FIG. 7. Experiment 15 evaluated captures of wild mice in trap boxes baited with high-levels of androstenone; Experiment 16 evaluated captures of wild rats in traps baited with high-levels of androstenone; Experiment 17 evaluated captures of wild mice in traps baited with low-levels of testosterone; and Experiment 18 evaluated captures of wild mice in traps baited with low-levels of androstenone. Experiment 15 was run from Feb. 4, 2016 to Apr. 14, 2016. Experiment 16 was run from Feb. 26, 2016 to Sep. 19, 2016. Experiments 17 and 18 were run in parallel from Jun. 2, 2016 to Sep. 8, 2016.\nEach replicate of Experiments 15 to 18 consisted of a pair of trap boxes (Mice: PROTECTA® Mouse, Bell Laboratories Inc., Madison, Wis. 53704, USA; Rats: PROTECTA® Sidekick™; Bell Laboratories Inc., Madison, Wis. 53704), with 50-cm spacing between boxes in each pair, and at least 2 m between pairs. Each trap box contained an armed snap trap (1, Mice: Victor® Easy Set® Mouse Trap; Rats: Victor® Easy Set® Rat Trap; Woodstream Corp, Lititz, Pa. 17543, USA) baited with a cereal-based food bait and a scintillation vial (2) containing synthetic sex pheromone blends. Each box in each pair also contained a treatment stimulus that consisted of a piece of Whatman #1 filter paper (3a) that by random assignment was treated with: 4 μg of synthetic androstenone dissolved in 50 μl ether (Experiments 15 and 16); 750 μg of synthetic testosterone dissolved in 50 μl ether (Experiment 17); or 750 μg of synthetic androstenone dissolved in 50 μl ether (Experiment 18). […]\nExperiments 19 and 20 evaluated the effect of synthetic blends of progesterone and estradiol (estrogen) on captures of wild mice (Experiment 19) and wild rats (Experiment 20) in the field. […]"}
{"smiles": "C[C@]12CCC(=O)C[C@@H]1CC[C@@H]1[C@@H]2CC[C@]2(C)C=CC[C@@H]12", "note": "[androstenone, 5α-androst-16-en-3-one]", "values": [{"measurement": "captures of juvenile and adult male rats", "result": "no significant effect"}, {"measurement": "captures of juvenile female rats", "result": "no significant effect"}, {"measurement": "captures of adult female rats vs control boxes", "setting": "with food bait and male rat sex pheromone blend", "result": "significantly more"}]}
